For data set [1], the system named is A. baumannii. Put plainly: Immunocompetent mouse septicaemia infection model. The settings on record: for Survivors, individual mouse status: ACC00445 septicaemia, 80 mg/kg. The format is in vivo. As to the method: Septicaemia was induced in CD-1 immunocompetent male mice by an intraperitoneal inoculation of a bacterial suspension of the tested A. baumannii isolate at a challenge of approximately 1–2 log[CFU] above the determined median lethal dose (resulting in 10^5 to 10^7 CFU per mouse). […] Mouse survival was followed over 6–7 days. GraphPad Prism 8 was used for graphical presentation of the data. Septicaemia studies with mutant derivative isolates obtained in resistance studies were performed as described above, using a bacterial challenge as determined for the parental isolate.

A further data set in a line: GSH adduct. The format is in vitro ADME.
Data set [2] deals with T1, Angiotensin converting enzyme (Homo sapiens, UniProt P12821).
T1 construct: purchased Eurofins CEREP SA
The data set is described as follows: Off-target screening (CEREP). Format: biochemical. Conditions: read-out: percent inhibition. As for the experimental part: Supplementary Table 1 │ Off-target activity screening f or MCP compou nds […]
The assays given in the table above were conducted at Eurofins CEREP S A (Celle-Lévescault, France) and were run as single point measurements in duplicates in the presence of 10 µ M of the test compound and reported as percent inhibition of the radioligand signal or control enzymatic activity. n.d., not

Another data set addresses T2, Cannabinoid receptor CB1 (Homo sapiens, UniProt P21554).
T2 construct: purchased Eurofins CEREP SA
The data set is described as follows: Off-target screening (CEREP). Format: binding. The settings on record: read-out: percent inhibition. In outline: (§1)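 Percent inhibition is reported, relative to radioligand signal in binding formats or to control enzymatic activity in enzyme formats. Each compound was tested once at 10 µM, in duplicate.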

The next data set addresses T3, PPAR gamma (Homo sapiens, UniProt P37231).
T3 construct: purchased Eurofins CEREP SA
T3 sequence (P37231 1-505): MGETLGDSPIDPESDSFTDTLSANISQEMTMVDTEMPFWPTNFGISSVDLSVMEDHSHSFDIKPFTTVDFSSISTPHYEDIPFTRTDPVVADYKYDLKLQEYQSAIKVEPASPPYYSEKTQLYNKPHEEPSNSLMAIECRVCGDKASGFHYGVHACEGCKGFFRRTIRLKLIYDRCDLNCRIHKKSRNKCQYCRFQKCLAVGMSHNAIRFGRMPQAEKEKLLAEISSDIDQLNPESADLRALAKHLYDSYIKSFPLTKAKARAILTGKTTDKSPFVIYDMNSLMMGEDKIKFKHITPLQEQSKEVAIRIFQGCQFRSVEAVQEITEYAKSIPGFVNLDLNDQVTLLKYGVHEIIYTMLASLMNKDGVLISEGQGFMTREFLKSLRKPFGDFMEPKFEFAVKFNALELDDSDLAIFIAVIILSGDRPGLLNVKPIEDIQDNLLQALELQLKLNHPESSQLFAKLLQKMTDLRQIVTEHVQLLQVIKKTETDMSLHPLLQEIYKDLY
The data set is described as follows: Off-target screening (CEREP). The format is binding. The settings on record: read-out: percent inhibition. In outline: as §1

A further data set addresses T4, Prostaglandin F receptor (Homo sapiens, UniProt P43088).
T4 construct: purchased Eurofins CEREP SA
Put plainly: Off-target screening (CEREP). The format is binding. The settings on record: read-out: percent inhibition. Put shortly: as §1

For the next data set, the target named is T5, Histamine H2 receptor (Homo sapiens, UniProt P25021).
T5 construct: purchased Eurofins CEREP SA
Put plainly: Off-target screening (CEREP). Format: binding. The settings on record: read-out: percent inhibition. In outline:
as §1

The next data set addresses T6, 5HT1A (Homo sapiens, UniProt P08908).
T6 construct: purchased Eurofins CEREP SA
T6 sequence (P08908 1-422): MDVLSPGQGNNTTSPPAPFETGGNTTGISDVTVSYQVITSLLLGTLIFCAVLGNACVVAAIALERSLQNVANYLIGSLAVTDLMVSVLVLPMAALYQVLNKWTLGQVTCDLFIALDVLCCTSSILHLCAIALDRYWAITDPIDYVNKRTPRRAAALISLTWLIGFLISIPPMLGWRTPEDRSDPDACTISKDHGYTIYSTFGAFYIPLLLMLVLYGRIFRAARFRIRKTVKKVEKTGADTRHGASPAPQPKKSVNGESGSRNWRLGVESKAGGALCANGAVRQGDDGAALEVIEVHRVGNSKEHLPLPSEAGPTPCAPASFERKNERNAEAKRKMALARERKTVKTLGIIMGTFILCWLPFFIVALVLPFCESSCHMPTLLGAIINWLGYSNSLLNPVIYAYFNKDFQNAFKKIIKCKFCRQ
The data set is described as follows: Off-target screening (CEREP). Format: binding. Conditions: read-out: percent inhibition. Put shortly: as §1

Data set [3] concerns the target T7, Cholecystokinin 1 receptor (Homo sapiens, UniProt P32238).
T7 construct: purchased Eurofins CEREP SA
T7 sequence (P32238 1-428): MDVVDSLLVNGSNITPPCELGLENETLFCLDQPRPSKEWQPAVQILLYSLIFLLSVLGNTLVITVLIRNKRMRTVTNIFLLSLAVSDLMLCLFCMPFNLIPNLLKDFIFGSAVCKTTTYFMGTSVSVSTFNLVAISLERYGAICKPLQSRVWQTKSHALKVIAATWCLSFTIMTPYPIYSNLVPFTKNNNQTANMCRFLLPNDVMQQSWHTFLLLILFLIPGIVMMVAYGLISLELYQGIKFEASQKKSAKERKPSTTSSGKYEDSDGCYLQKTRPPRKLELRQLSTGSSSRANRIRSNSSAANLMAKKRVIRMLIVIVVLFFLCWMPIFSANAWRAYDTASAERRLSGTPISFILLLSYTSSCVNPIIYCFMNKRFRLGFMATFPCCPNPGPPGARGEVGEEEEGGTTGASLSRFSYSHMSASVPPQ
Put plainly: Off-target screening (CEREP). Format: binding. Conditions: read-out: percent inhibition. In outline: as §1

Data set [4] relates to A. baumannii. Put plainly: Neutropaenic mouse thigh infection model. Format: in vivo. As to the method: An intramuscular inoculation of a bacterial suspension of approximately 10^6 CFU per thigh was used to induce the infection. Treatment started 2 h after infection. […] In the pneumonia model, an intratracheal inoculation of approximately 10^7 CFU per lung was used to induce the infection. Treatment started 2 h after infection. […] Standard of care antibiotic was tested at a single dose in both infection models. GraphPad Prism 8 was used for graphical presentation and to analyse data.

Setting [5] is: murine septicaemia, MDR A. baumannii APV00535 (ACC00535), MCP 0.1 mg/kg, mark per mouse (10 mice), study VDD3948.

Where two headings read alike, the source gives them in different places.

The results in this text go back to article PMC10794144, “A novel antibiotic class targeting the lipopolysaccharide transporter” (Nature, 2024).

T1 sequence (P12821 30-1306): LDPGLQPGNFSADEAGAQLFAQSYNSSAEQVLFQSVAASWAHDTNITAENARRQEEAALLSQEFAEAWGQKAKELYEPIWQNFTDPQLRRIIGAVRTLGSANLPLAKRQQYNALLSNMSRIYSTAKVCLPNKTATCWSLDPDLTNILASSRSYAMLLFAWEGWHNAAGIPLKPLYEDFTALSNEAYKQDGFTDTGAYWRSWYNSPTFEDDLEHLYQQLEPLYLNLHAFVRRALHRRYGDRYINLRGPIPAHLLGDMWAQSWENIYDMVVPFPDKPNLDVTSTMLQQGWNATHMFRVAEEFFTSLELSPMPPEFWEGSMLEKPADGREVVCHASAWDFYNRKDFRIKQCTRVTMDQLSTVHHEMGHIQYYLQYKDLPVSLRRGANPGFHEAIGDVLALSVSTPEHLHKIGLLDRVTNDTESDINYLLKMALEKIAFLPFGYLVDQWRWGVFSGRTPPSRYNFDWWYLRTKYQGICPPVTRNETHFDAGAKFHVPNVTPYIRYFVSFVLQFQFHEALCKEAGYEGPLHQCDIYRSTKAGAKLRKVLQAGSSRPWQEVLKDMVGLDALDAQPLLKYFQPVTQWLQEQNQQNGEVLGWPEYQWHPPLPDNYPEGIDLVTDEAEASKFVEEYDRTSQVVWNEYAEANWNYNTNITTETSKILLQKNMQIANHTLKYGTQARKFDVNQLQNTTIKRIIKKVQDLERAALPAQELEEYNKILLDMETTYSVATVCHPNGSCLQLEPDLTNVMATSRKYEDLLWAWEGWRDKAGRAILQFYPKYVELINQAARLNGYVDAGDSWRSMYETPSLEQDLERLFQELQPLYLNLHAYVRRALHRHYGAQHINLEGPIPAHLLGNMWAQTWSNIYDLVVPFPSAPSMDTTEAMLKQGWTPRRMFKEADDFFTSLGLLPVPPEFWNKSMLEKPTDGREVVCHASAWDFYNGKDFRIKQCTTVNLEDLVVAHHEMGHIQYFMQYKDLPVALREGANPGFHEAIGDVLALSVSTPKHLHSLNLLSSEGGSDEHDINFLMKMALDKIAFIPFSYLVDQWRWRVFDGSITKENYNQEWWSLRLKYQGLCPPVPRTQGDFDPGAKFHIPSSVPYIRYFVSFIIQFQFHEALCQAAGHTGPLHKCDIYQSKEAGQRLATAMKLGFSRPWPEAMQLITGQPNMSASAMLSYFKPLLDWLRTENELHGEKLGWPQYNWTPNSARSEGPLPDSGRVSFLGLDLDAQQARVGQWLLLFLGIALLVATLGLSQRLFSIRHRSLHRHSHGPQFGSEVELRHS
T2 sequence (P21554 whole entry): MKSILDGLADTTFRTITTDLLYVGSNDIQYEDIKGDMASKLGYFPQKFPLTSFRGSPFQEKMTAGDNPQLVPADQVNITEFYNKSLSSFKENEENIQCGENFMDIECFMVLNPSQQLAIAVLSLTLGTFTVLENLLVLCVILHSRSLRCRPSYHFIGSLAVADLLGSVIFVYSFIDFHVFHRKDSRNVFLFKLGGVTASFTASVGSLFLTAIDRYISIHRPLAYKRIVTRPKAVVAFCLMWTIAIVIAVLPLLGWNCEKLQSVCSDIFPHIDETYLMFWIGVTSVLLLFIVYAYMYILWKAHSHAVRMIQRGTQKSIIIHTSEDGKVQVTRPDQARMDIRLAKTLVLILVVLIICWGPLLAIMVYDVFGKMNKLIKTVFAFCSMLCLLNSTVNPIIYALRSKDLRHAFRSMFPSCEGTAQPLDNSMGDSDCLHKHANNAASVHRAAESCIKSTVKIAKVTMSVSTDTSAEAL
T5 sequence (P25021 whole entry): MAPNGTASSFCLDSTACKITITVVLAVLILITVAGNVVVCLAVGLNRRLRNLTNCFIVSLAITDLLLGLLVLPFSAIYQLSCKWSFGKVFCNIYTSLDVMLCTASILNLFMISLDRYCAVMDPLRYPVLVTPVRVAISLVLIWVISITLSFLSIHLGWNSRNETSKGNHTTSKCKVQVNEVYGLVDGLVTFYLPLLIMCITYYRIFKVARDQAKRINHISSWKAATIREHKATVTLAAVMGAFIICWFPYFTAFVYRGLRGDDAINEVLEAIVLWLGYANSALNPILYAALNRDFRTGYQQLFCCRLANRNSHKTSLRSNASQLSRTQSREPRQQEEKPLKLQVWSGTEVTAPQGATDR
T4 sequence (P43088 whole entry): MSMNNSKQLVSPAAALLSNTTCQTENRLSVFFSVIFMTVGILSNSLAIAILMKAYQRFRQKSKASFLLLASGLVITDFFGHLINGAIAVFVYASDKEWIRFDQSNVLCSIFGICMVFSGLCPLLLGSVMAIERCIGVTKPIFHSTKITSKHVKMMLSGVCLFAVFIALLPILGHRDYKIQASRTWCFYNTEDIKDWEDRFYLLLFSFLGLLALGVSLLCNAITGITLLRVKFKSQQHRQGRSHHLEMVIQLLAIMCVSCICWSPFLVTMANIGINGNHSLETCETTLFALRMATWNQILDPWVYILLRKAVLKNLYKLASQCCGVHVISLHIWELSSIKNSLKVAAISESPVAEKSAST

As usually defined, the inhibition is the drop in the measured response relative to a control, in per cent. `CN1C(=O)[C@H](CCCCN)NC(=O)[C@H](CCCN)NCc2cccnc2Sc2c(Cl)ccc(Cl)c2CNC(=O)[C@@H]1Cc1c[nH]c2ccccc12` [RO7075573]: the Ames result in the data set “Ames” was “Negative”. Also, in the data set with A. baumannii [1] (ACC00535, immunocompetent mice, s.c. doses between 0.1 and 0.3 mg per kg at 1 h and 5 h), the “Protection in lethal sepsis model” value is recorded as “complete protection”. Also, the “Survivors, 2016-02-03” value amounted to 1 in the data set with A. baumannii [1] (murine septicaemia, MDR A. baumannii APV00535 (ACC00535), MCP 0.01 mg/kg, mark per mouse (10 mice), study VDD3948); 1 in the data set on A. baumannii [1] (murine septicaemia, MDR A. baumannii APV00535 (ACC00535), MCP 0.03 mg/kg, mark per mouse (10 mice), study VDD3948); 1 in the data set on A. baumannii [1] (setting [5]). Moreover, the “Survivors, 2016-02-04” value in the data set with A. baumannii [1] (setting [5]) was found to be 1. For the same molecule, in the data set “GSH adduct”, the GSH adduct entry is listed as “Clean”. Besides, the inhibition at 10 µM was -7% in data set [2]; -16% on Cannabinoid receptor CB1; -16% at PPAR gamma; -4% on Prostaglandin F receptor; 11% on Histamine H2 receptor; 11% at 5HT1A. In addition, the inhibition at 10 µM in data set [3] amounted to 32%. Besides, the “Decrease in thigh bacterial burden” value with A. baumannii [4] (ACC00535, neutropaenic mice, s.c. every 4 h for 24 h) is recorded as > 4 log CFU.

As to `CN1C(=O)[C@H](CCCN)NC(=O)[C@H](CCCN)NCc2ccccc2Sc2ccccc2CNC(=O)[C@@H]1Cc1c[nH]c2ccccc12` [RO7036668], the inhibition at 10 µM was -7% in data set [2] (10 µM, duplicates); -26% on Cannabinoid receptor CB1 (10 µM, duplicates); -1% on PPAR gamma (10 µM, duplicates); 2% at Prostaglandin F receptor (10 µM, duplicates); 12% on Histamine H2 receptor (10 µM, duplicates); 33% on 5HT1A (10 µM, duplicates). The inhibition at 10 µM in data set [3] (10 µM, duplicates) was 22%.

For the molecule `CN1C(=O)[C@H](CCCCN)NC(=O)[C@H](CCCN)NCc2cccnc2Sc2c(Cl)ccc(-c3ccc(C(=O)O)cc3)c2CNC(=O)[C@@H]1Cc1c[nH]c2ccccc12` [RO7202110], in “Ames”, the Ames result is reported as “Negative”. The GSH adduct entry in the data set “GSH adduct” is “Clean”. Further, the inhibition at 10 µM in data set [2] (10 µM, duplicates) was 3%; at Cannabinoid receptor CB1 (10 µM, duplicates) it was -24%; on PPAR gamma (10 µM, duplicates), -8%; at Prostaglandin F receptor (10 µM, duplicates) it was -3%; at Histamine H2 receptor (10 µM, duplicates), 3%; at 5HT1A (10 µM, duplicates), 13%. In addition, the inhibition at 10 µM in data set [3] (10 µM, duplicates) came to 0%.

Regarding `C[C@@H](O)[C@H]1C(=O)N2C(C(=O)O)=C(S[C@@H]3CN[C@H](C(=O)N(C)C)C3)[C@H](C)[C@H]12` [meropenem, reference compound], the “Survivors, individual mouse status” value in the data set with A. baumannii [1] (Day 1) and in the data set with A. baumannii [1] (Day 2) was 1 in each case. Also, the “Survivors, 2016-02-03” value with A. baumannii [1] (murine septicaemia, MDR A. baumannii APV00535 (ACC00535), Meropenem 80 mg/kg, mark per mouse (10 mice), study VDD3948) was determined as 1. The “delta 24 hr” value with A. baumannii [4] (A. baumannii ACC00535 (APV00535), neutropenic mice, MERO 100 mg/kg, 24 h, change of average log CFU/thigh vs vehicle at 24 h) is on record as 0.67. For the same molecule, the “Thigh bacterial burden outcome” value in the data set with A. baumannii [4] (ACC00535, neutropaenic mice) is listed as “bacterial outgrowth”.
